In patent US11078170B2 (Assembly Biosciences, Inc., priority 2017, dated 2021):

tested on: HBV viral production from HepAD38 cells; experiment: Activity of test compounds on viral production from HepAD38 cells (viral load by qPCR of HBV core sequence in supernatant); assay type: cell-based; details: Hepatitis B virus, 120 h, 5 days incubation, HBV DNA in supernatant by qPCR, top concentration 10 μM, read-out: Viral Load EC50 Activity range
Method in brief: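 HepAD38 cells, 50,000/well in tetracycline-free 2% FBS medium, treated 5 days at 37° C. with compound from 10 μM top concentration. HBV DNA in supernatant quantified by TaqMan qPCR of core sequence against DNA standards, relative to DMSO wells; CellTiter-Glo viability read in parallel. EC50/CC50 from four-parameter logistic fit.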

SMILES	EC50 [nM]
CN1C(C(=O)Nc2ccc(F)c(Cl)c2)CC(c2cc(-c3cnn(CCO)c3)cs2)NS1(=O)=O (racemic) [HBV-CSU-296, Cis-N-(3-chloro-4-fluorophenyl)-5-(4-(1-(2-hydroxyethyl)-1H-pyrazol-4-yl)thiophen-2-yl)-2-methyl-1,2,6-thiadiazinane-3-carboxamide 1,1-dioxide]	1000 to 5000
Cc1cc(C2CC(C(=O)Nc3ccc(F)c(Cl)c3)N(C)S(=O)(=O)N2)sc1-c1cnn(C)c1 (racemic) [HBV-CSU-300, Cis-N-(3-Chloro-4-fluorophenyl)-5-(4-methyl-5-(1-methyl-1H-pyrazol-4-yl)thiophen-2-yl)-2-methyl-1,2,6-thiadiazinane-3-carboxamide 1,1-dioxide]	< 1000
Cc1sc(C2CC(C(=O)Nc3ccc(F)c(Cl)c3)N(C)S(=O)(=O)N2)cc1-c1cnn(C)c1 (racemic) [HBV-CSU-304, Cis-N-(3-Chloro-4-fluorophenyl)-2-methyl-5-(5-methyl-4-(1-methyl-1H-pyrazol-4-yl)thiophen-2-yl)-1,2,6-thiadiazinane-3-carboxamide 1,1-dioxide]	< 1000
CCc1sc(C2CC(C(=O)Nc3ccc(F)c(Cl)c3)N(C)S(=O)(=O)N2)cc1-c1cnn(C)c1 (racemic) [HBV-CSU-305, Cis-N-(3-Chloro-4-fluorophenyl)-5-(5-ethyl-4-(1-methyl-1H-pyrazol-4-yl)thiophen-2-yl)-2-methyl-1,2,6-thiadiazinane-3-carboxamide 1,1-dioxide]	< 1000
Cc1c(-c2ccc(C3CC(C(=O)Nc4ccc(F)c(Cl)c4)N(C)S(=O)(=O)N3)s2)cnn1C (racemic) [HBV-CSU-312, Cis-N-(3-chloro-4-fluorophenyl)-5-(5-(1,5-dimethyl-1H-pyrazol-4-yl)thiophen-2-yl)-2-methyl-1,2,6-thiadiazinane-3-carboxamide 1,1-dioxide]	< 1000
Cc1nn(C)c(C)c1-c1csc(C2CC(C(=O)Nc3ccc(F)c(Cl)c3)N(C)S(=O)(=O)N2)c1 (racemic) [HBV-CSU-317, Cis-N-(3-chloro-4-fluorophenyl)-2-methyl-5-(4-(1,3,5-trimethyl-1H-pyrazol-4-yl)thiophen-2-yl)-1,2,6-thiadiazinane-3-carboxamide 1,1-dioxide]	< 1000
CN1C(C(=O)Nc2ccc(F)c(Cl)c2)CC(c2ccc(-c3ncn(C)n3)s2)NS1(=O)=O (racemic) [HBV-CSU-322, Cis-N-(3-Chloro-4-fluorophenyl)-2-methyl-5-(5-(1-methyl-1H-1,2,4-triazol-3-yl)thiophen-2-yl)-1,2,6-thiadiazinane-3-carboxamide 1,1-dioxide]	< 1000
CN1C(C(=O)Nc2ccc(F)c(Cl)c2)CC(c2ccc(-c3ncnn3C)s2)NS1(=O)=O (racemic) [HBV-CSU-323, Cis-N-(3-Chloro-4-fluorophenyl)-2-methyl-5-(5-(1-methyl-1H-1,2,4-triazol-5-yl)thiophen-2-yl)-1,2,6-thiadiazinane-3-carboxamide 1,1-dioxide]	< 1000
CN1C(C(=O)Nc2ccc(F)c(Cl)c2)CC(c2ccc(-c3nncn3C)s2)NS1(=O)=O (racemic) [HBV-CSU-324, Cis-N-(3-Chloro-4-fluorophenyl)-2-methyl-5-(5-(4-methyl-4H-1,2,4-triazol-3-yl)thiophen-2-yl)-1,2,6-thiadiazinane-3-carboxamide 1,1-dioxide]	< 1000
CN1C(C(=O)Nc2ccc(F)c(Cl)c2)CC(c2cc(-c3cnn(C(F)(F)F)c3)cs2)NS1(=O)=O (racemic) [HBV-CSU-325, Cis-N-(3-Chloro-4-fluorophenyl)-2-methyl-5-(4-(1-(trifluoromethyl)-1H-pyrazol-4-yl)thiophen-2-yl)-1,2,6-thiadiazinane-3-carboxamide 1,1-dioxide]	< 1000
CN1C(C(=O)Nc2ccc(F)c(Cl)c2)CC(c2cc(-c3ncn(C)n3)cs2)NS1(=O)=O (racemic) [HBV-CSU-326, Cis-N-(3-chloro-4-fluorophenyl)-2-methyl-5-(4-(1-methyl-1H-1,2,4-triazol-3-yl)thiophen-2-yl)-1,2,6-thiadiazinane-3-carboxamide 1,1-dioxide]	< 1000
CN1C(C(=O)Nc2ccc(F)c(Cl)c2)CC(c2cc(-c3ncnn3C)cs2)NS1(=O)=O (racemic) [HBV-CSU-327, Cis-N-(3-Chloro-4-fluorophenyl)-2-methyl-5-(4-(1-methyl-1H-1,2,4-triazol-5-yl)thiophen-2-yl)-1,2,6-thiadiazinane-3-carboxamide 1,1-dioxide]	< 1000
CN1C(C(=O)Nc2ccc(F)c(Cl)c2)CC(c2cc(-c3nncn3C)cs2)NS1(=O)=O (racemic) [HBV-CSU-328, Cis-N-(3-chloro-4-fluorophenyl)-2-methyl-5-(4-(4-methyl-4H-1,2,4-triazol-3-yl)thiophen-2-yl)-1,2,6-thiadiazinane-3-carboxamide 1,1-dioxide]	< 1000
CN1C(C(=O)Nc2ccc(F)c(Cl)c2)CC(c2ccc3c(c2)ncn3C)NS1(=O)=O (racemic) [HBV-CSU-360, Cis-N-(3-chloro-4-fluorophenyl)-2-methyl-5-(1-methyl-1H-benzo[d]imidazol-5-yl)-1,2,6-thiadiazinane-3-carboxamide 1,1-dioxide]	< 1000
CN1C(C(=O)Nc2ccc(F)c(Cl)c2)CC(c2nc3ccccc3s2)NS1(=O)=O (racemic) [HBV-CSU-364, Cis-5-(benzo[d]thiazol-2-yl)-N-(3-chloro-4-fluorophenyl)-2-methyl-1,2,6-thiadiazinane-3-carboxamide 1,1-dioxide]	< 1000
[2H]C([2H])([2H])N1C(C(=O)Nc2ccc(F)c(Cl)c2)CC(c2ccc(Br)s2)NS1(=O)=O (racemic) [HBV-CSU-370, Cis-5-(5-bromothiophen-2-yl)-N-(3-chloro-4-fluorophenyl)-2-(methyl-d3)-1,2,6-thiadiazinane-3-carboxamide 1,1-dioxide]	< 1000
CN(C)CCN1[C@@H](c2cccs2)C[C@@H](C(=O)Nc2ccc(F)c(Cl)c2)N(C)S1(=O)=O (relative stereo) [HBV-CSU-043-ISO-I, Cis-N-(3-chloro-4-fluorophenyl)-6-(2-(dimethylamino)ethyl)-2-methyl-5-(thiophen-2-yl)-1,2,6-thiadiazinane-3-carboxamide 1,1-dioxide]	> 5000
CN1[C@@H](C(=O)Nc2ccc(F)c(Cl)c2)C[C@@H](c2ccsn2)NS1(=O)=O (relative stereo) [HBV-CSU-056-ISO-II, Cis-N-(3-chloro-4-fluorophenyl)-5-(isothiazol-3-yl)-2-methyl-1,2,6-thiadiazinane-3-carboxamide 1,1-dioxide]	> 5000
CC(C)(C)OCCN1[C@@H](C(=O)Nc2ccc(F)c(Cl)c2)C[C@@H](c2nccs2)NS1(=O)=O (relative stereo) [HBV-CSU-071-ISO-II, Cis-2-(2-(tert-Butoxy)ethyl)-N-(3-chloro-4-fluorophenyl)-5-(thiazol-2-yl)-1,2,6-thiadiazinane-3-carboxamide 1,1-dioxide]	1000 to 5000
C#CCN1[C@H](C(=O)Nc2ccc(F)c(Cl)c2)C[C@H](c2nccs2)NS1(=O)=O (relative stereo) [HBV-CSU-089-ISO-I, Cis-N-(3-chloro-4-fluorophenyl)-2-(prop-2-yn-1-yl)-5-(thiazol-2-yl)-1,2,6-thiadiazinane-3-carboxamide 1,1-dioxide]	< 1000
O=C(Nc1ccc(F)c(Cl)c1)[C@H]1C[C@@H](c2nccs2)NS(=O)(=O)N1CCOCc1ccccc1 (relative stereo) [HBV-CSU-095-ISO-I, Cis-2-(2-(benzyloxy)ethyl)-N-(3-chloro-4-fluorophenyl)-5-(thiazol-2-yl)-1,2,6-thiadiazinane-3-carboxamide 1,1-dioxide]	1000 to 5000
O=C(Nc1ccc(F)c(Cl)c1)[C@@H]1C[C@H](c2nccs2)NS(=O)(=O)N1CCO (relative stereo) [HBV-CSU-097-ISO-II, Cis-N-(3-Chloro-4-fluorophenyl)-2-(2-hydroxyethyl)-5-(thiazol-2-yl)-1,2,6-thiadiazinane-3-carboxamide 1,1-dioxide]	> 5000
CCN(CC)CCCN1[C@H](C(=O)Nc2ccc(F)c(Cl)c2)C[C@H](c2nccs2)NS1(=O)=O (relative stereo) [HBV-CSU-101-ISO-II, Cis-N-(3-Chloro-4-fluorophenyl)-2-(3-(diethylamino)propyl)-5-(thiazol-2-yl)-1,2,6-thiadiazinane-3-carboxamide 1,1-dioxide]	> 5000
CN1[C@@H](C(=O)Nc2ccc(F)c(Cl)c2)C[C@@H](c2ccc(-c3ccccc3)s2)NS1(=O)=O (relative stereo) [HBV-CSU-116-ISO-II, Cis-N-(3-chloro-4-fluorophenyl)-2-methyl-5-(5-phenylthiophen-2-yl)-1,2,6-thiadiazinane-3-carboxamide 1,1-dioxide]	1000 to 5000
CCOCCN1[C@H](C(=O)Nc2ccc(F)c(Cl)c2)C[C@H](c2nccs2)NS1(=O)=O (relative stereo) [HBV-CSU-142-ISO-II, Cis-N-(3-Chloro-4-fluorophenyl)-2-(2-ethoxyethyl)-5-(thiazol-2-yl)-1,2,6-thiadiazinane-3-carboxamide 1,1-dioxide]	< 1000
CN1[C@@H](C(=O)Nc2ccc(F)c(Cl)c2)C[C@@H](c2ccc(-c3ccc(NS(C)(=O)=O)cc3)s2)NS1(=O)=O (relative stereo) [HBV-CSU-163-ISO-II, Cis-N-(3-chloro-4-fluorophenyl)-2-methyl-5-(5-(4-(methylsulfonamido)phenyl)thiophen-2-yl)-1,2,6-thiadiazinane-3-carboxamide 1,1-dioxide]	< 1000
CN1[C@@H](C(=O)Nc2ccc(F)c(Cl)c2)C[C@@H](c2ncc(-c3ccc(NS(C)(=O)=O)cc3)s2)NS1(=O)=O (relative stereo) [HBV-CSU-179, Cis-N-(3-Chloro-4-fluorophenyl)-2-methyl-5-(5-(4-(methylsulfonamido)phenyl)thiazol-2-yl)-1,2,6-thiadiazinane-3-carboxamide 1,1-dioxide]	< 1000
